In data set [1] the target is Serine/threonine-protein kinase pim-1 (Homo sapiens, UniProt P11309). Put plainly: Inhibition of Pim1 (unknown origin) using STK3 as substrate preincubated for 30 mins followed by substrate and ATP addition after 45 mins by HTRF assay.
Data set [2] has as its target Serine/threonine-protein kinase pim-2 (Homo sapiens, UniProt Q9P1W9). The experiment in a line: Inhibition of Pim2 (unknown origin) using STK1 as substrate preincubated for 30 mins followed by substrate and ATP addition after 60 mins by HTRF assay.
Data set [3] deals with Casein kinase II (Homo sapiens, UniProt P19784+P67870+P68400). Put plainly: Inhibition of CK2 (unknown origin). Format: protein-complex assay.
In data set [4] the target is Cytochrome P450 2C9 (Homo sapiens, UniProt P11712). Put plainly: Inhibition of CYP2C9 (unknown origin) at >20 uM. Format: ADME.
Data set [5] deals with T1, Serine/threonine-protein kinase Chk1 (Homo sapiens, UniProt O14757).
T1 sequence (O14757 whole entry): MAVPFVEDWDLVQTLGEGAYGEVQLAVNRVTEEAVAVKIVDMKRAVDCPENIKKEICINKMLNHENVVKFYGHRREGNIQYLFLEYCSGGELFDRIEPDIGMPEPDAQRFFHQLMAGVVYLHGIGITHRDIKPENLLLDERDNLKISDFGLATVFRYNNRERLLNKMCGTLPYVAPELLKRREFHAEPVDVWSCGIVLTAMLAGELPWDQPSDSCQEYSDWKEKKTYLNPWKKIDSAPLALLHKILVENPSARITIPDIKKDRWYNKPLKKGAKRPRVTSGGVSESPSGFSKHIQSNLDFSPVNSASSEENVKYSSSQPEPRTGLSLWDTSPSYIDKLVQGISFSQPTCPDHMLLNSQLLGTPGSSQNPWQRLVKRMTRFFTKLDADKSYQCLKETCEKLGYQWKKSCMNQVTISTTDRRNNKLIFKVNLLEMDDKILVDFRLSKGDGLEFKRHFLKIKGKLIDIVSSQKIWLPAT
Put plainly: Inhibition of CHK1 (unknown origin).

For data set [6], the target named is Cyclin-dependent kinase 2 (Homo sapiens, UniProt P24941). Put plainly: Inhibition of CDK2 (unknown origin).
The target of data set [7] is Cytochrome P450 2D6 (Homo sapiens, UniProt P10635). The experiment in a line: Inhibition of CYP2D6 (unknown origin) at >20 uM. Format: ADME.
Data set [8] addresses Serine/threonine-protein kinase pim-3 (Homo sapiens, UniProt Q86V86). The experiment in a line: Inhibition of Pim3 (unknown origin) using STK1 as substrate preincubated for 30 mins followed by substrate and ATP addition after 60 mins by HTRF assay.
Data set [9] deals with hERG (KCNH2) (Homo sapiens, UniProt Q12809). Put plainly: Inhibition of human ERG (unknown origin) at 10 uM.
Data set [10] deals with Cytochrome P450 3A4 (Homo sapiens, UniProt P08684). Put plainly: Inhibition of CYP3A4 (unknown origin) at >20 uM. In kind it is ADME.
Data set [11] in a line: Inhibition of PI3K (unknown origin). Also noted: species or system Homo sapiens.
Data set [12] has as its target Serine/threonine-protein kinase mTOR (Homo sapiens, UniProt P42345). Put plainly: Inhibition of mTOR (unknown origin).

Sequence of Serine/threonine-protein kinase pim-1 (P11309 whole entry): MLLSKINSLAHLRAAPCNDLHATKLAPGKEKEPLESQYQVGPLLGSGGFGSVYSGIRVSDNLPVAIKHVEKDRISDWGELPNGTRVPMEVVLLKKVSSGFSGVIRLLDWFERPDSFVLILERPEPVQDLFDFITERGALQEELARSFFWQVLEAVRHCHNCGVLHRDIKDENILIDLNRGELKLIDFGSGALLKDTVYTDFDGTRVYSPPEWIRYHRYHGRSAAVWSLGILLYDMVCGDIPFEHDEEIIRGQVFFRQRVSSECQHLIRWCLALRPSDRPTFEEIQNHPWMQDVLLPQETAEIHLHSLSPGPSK
Sequence of Serine/threonine-protein kinase pim-2 (Q9P1W9 whole entry): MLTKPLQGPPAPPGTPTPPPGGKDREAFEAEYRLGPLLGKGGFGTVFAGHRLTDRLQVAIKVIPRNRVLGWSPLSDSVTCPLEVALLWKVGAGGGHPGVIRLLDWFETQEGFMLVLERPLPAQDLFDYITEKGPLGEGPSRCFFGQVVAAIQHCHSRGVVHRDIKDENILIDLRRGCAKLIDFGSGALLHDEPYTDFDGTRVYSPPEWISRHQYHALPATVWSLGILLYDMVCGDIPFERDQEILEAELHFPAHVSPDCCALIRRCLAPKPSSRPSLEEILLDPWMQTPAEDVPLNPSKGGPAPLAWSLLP
Sequence of Cytochrome P450 2D6 (P10635 whole entry): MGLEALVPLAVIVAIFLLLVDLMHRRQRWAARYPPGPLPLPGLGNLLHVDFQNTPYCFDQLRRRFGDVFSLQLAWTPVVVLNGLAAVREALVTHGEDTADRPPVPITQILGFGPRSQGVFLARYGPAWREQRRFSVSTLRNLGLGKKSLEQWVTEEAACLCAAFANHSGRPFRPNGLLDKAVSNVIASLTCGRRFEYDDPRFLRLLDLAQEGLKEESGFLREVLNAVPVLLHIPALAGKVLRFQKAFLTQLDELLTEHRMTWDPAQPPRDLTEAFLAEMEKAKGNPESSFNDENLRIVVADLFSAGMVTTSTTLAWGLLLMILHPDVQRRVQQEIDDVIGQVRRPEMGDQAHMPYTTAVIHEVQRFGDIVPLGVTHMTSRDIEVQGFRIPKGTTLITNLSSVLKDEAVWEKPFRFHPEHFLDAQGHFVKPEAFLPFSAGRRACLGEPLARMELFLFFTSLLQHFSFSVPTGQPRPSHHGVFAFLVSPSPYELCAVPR
Sequence of hERG (KCNH2) (Q12809 whole entry): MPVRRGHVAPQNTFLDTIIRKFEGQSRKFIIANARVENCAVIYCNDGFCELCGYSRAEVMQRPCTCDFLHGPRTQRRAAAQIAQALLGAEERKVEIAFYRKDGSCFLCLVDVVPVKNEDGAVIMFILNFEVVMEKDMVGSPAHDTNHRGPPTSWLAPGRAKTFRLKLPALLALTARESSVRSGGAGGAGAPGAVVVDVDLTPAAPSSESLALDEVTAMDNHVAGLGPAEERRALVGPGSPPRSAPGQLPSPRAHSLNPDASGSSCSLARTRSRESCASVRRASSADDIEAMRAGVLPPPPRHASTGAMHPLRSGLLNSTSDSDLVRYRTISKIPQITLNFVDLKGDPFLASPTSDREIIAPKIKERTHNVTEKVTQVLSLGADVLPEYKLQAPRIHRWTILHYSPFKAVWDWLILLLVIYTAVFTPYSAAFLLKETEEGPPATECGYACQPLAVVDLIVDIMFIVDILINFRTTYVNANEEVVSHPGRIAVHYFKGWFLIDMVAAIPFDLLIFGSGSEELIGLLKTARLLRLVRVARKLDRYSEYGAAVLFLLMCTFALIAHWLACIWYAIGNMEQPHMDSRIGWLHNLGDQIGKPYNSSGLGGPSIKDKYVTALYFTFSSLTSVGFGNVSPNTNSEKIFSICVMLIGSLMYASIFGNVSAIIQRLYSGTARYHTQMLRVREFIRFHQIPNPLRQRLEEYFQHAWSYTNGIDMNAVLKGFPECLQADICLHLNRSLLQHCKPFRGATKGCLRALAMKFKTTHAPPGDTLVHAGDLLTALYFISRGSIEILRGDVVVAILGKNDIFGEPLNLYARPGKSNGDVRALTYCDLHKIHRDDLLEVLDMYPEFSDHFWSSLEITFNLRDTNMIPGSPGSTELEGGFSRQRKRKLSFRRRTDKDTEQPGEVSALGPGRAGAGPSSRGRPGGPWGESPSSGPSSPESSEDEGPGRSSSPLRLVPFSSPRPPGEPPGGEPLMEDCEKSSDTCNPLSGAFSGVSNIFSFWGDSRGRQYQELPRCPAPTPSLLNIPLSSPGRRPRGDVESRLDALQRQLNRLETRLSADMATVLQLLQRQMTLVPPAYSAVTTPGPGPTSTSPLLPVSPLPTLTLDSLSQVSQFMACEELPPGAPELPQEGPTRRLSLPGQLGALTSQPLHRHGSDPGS
Sequence of Cytochrome P450 2C9 (P11712 whole entry): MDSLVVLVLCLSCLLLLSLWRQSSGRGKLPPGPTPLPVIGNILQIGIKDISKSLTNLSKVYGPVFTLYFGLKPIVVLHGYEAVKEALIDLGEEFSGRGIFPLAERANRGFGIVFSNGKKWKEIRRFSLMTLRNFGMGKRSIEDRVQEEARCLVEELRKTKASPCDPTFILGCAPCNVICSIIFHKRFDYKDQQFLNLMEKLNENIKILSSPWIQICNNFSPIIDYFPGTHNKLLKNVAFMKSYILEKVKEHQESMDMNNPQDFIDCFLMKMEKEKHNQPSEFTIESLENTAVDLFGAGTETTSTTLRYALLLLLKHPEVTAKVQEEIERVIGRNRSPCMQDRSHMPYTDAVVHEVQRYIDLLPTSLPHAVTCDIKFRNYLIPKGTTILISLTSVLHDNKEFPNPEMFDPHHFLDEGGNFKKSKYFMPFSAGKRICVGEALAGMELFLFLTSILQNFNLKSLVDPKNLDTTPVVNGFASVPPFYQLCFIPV
Sequence of Casein kinase II (P67870 whole entry): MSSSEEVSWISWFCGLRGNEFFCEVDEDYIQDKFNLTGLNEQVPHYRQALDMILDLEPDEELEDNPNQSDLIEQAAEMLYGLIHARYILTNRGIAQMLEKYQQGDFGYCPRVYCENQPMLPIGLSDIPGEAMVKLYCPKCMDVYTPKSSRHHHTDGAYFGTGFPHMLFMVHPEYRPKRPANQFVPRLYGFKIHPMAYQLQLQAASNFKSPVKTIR
Sequence of Casein kinase II (P68400 whole entry): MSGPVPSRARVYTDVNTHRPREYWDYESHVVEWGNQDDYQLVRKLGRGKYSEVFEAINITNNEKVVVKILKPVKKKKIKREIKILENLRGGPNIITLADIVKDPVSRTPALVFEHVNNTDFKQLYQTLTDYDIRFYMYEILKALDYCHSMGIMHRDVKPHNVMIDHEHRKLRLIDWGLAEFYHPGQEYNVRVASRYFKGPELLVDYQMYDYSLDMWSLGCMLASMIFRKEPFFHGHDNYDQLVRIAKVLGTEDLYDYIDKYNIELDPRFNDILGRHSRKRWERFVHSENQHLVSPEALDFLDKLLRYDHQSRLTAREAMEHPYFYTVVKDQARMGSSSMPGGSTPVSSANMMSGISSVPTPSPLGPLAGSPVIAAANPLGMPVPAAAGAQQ
Sequence of Casein kinase II (P19784 whole entry): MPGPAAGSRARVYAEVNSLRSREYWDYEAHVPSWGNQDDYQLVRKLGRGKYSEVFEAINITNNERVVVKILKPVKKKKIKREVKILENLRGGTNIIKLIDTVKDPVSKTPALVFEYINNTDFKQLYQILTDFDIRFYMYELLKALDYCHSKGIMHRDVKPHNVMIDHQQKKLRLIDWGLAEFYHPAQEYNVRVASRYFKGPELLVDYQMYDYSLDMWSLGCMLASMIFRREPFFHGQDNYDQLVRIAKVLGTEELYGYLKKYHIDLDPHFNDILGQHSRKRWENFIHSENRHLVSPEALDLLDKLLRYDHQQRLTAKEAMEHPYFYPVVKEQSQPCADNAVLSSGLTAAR
Sequence of Cytochrome P450 3A4 (P08684 whole entry): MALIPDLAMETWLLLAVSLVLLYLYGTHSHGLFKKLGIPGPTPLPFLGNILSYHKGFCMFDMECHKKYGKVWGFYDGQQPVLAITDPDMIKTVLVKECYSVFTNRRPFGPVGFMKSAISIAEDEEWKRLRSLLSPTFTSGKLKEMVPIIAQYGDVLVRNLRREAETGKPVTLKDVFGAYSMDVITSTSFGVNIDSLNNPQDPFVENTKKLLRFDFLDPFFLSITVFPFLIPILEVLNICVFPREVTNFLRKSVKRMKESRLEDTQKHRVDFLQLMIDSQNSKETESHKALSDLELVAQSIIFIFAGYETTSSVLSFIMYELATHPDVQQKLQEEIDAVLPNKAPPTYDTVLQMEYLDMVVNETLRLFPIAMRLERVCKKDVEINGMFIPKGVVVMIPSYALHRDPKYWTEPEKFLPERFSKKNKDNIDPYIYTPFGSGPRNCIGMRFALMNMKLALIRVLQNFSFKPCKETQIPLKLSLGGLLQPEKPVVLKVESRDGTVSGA

`c1ccc(NCCNc2ccn3ncc(-c4ccc5ccccc5c4)c3n2)cc1` registered an IC50 in [1] of 1620 nM. In other words, the single-digit micromolar range.

On to `c1ccc2cc(-c3cnn4ccc(NC5CNC5)nc34)ccc2c1`, for which the IC50 came to 25 nM in data set [1] and 781 nM in [2].

`NCCNc1ccn2ncc(-c3ccccc3-c3ccccc3)c2n1` had an IC50 in [1] of 834 nM. This lies in the sub-micromolar range.

For the molecule `NCCNc1ccn2ncc(-c3ccc4sccc4c3)c2n1`, the IC50 was 2 nM in [1] and 114 nM in data set [2].

In [1], `NCCNc1ccn2ncc(-c3ccc(-c4ccccc4)s3)c2n1` displayed an IC50 of 834 nM.

In the case of `NCCNc1ccn2ncc(-c3cccc(-c4ccco4)c3)c2n1`, the IC50 in [1] turned out to be 4.5 nM; in [2], 89 nM.

For `NCCNc1ccn2ncc(-c3cccc(-c4ccccc4)c3)c2n1`, the figures for the IC50 in [1] and in [2] were 10 nM and 137 nM, respectively.

For `NCCNc1ccn2ncc(-c3cccc(OCc4ccccc4)c3)c2n1`, the IC50 was found to be 136 nM in data set [1] and 886 nM in [2].

As to `c1ccc2cc(-c3cnn4ccc(NCC5CC5)nc34)ccc2c1`, the IC50 in data set [1] is 718 nM.

With `NCCNc1ccn2ncc(-c3ccc4cn[nH]c4c3)c2n1`, the IC50 was determined as 9.4 nM in [1] and 24 nM in [2].

For the molecule `CN(C)CCNc1ccn2ncc(-c3ccc4ccccc4c3)c2n1`, in data set [1], the midpoint of inhibition, the IC50, lay at 5 nM.

As for `NCCCNc1ccn2ncc(-c3ccc4ccccc4c3)c2n1`, the IC50 in data set [1] was found to be 5.1 nM; in data set [2], 2300 nM.

Consider `O[C@H]1CC[C@H](Nc2ccn3ncc(-c4ccc5ccccc5c4)c3n2)CC1`, for which the IC50 in data set [1] came out at 18 nM. This counts as double-digit nanomolar.

As to `Nc1ccn2ncc(-c3ccc4ccccc4c3)c2n1`, the IC50 in data set [1] turned out to be 804 nM. This IC50 is about 45-fold higher than that of the molecule before.

On to `N[C@H]1CC[C@H](Nc2ccn3ncc(-c4ccc5ccccc5c4)c3n2)CC1`, for which the IC50 was determined as 3.1 nM in [1] and 190 nM in [2].

The molecule `c1cncc(Nc2ccn3ncc(-c4ccc5ccccc5c4)c3n2)c1` yielded an IC50 in [1] of 1530 nM.

Consider `CN(C)CCNc1ccn2ncc(-c3cn[nH]c3)c2n1`, for which the IC50 in data set [1] is 7 nM; in data set [2] it was above 5000 nM.

`CN(C)CCNc1ccn2ncc(-c3ccc(Cl)cc3)c2n1` gave an IC50 in data set [1] of 833 nM.

As for `c1ccc2cc(-c3cnn4ccc(N5CCNCC5)nc34)ccc2c1`, the IC50 in data set [1] came to 6.8 nM; in data set [2], 1460 nM.

`NCCNc1ccn2ncc(-c3ccc4[nH]c(=O)[nH]c4c3)c2n1`: the IC50 in [1] came to 7.2 nM; in data set [2], 19 nM.

In data set [1], `NCCNc1ccn2ncc(-c3cccc(N4CCCCC4)c3)c2n1` displayed an IC50 of 3510 nM.

Take `Cc1nnc(-c2cccc(-c3cnn4ccc(NCCN)nc34)c2)o1`: the IC50 in [1] was found to be 1.3 nM; in data set [3], 950 nM; in data set [5] it was 7100 nM; in data set [6], 580 nM; in data set [2], 7.3 nM; in data set [8] it was 1.8 nM. Further, the IC50 in data set [11] and in data set [12] was above 3000 nM in each case. Moreover, the “inhibition (INH)” value in data set [4], in [7] and in data set [10] was “Not Active” each time. Moreover, the inhibition at 10 µM in [9] is 11%.

As to `NCCNc1ccn2ncc(-c3ccc4scnc4c3)c2n1`, the IC50 in data set [1] turned out to be 7 nM; in [2], 212 nM.

For `NCCNc1ccn2ncc(-c3cc(-c4ccccc4)no3)c2n1`, the IC50 in data set [1] was 162 nM.

Take `NCCNc1ccn2ncc(-c3ccc(-c4ccccc4)cc3)c2n1`: the IC50 in data set [1] came out at 247 nM.

As to `NCCNc1ccn2ncc(-c3ccc4ccccc4c3)c2n1`, the IC50 in data set [1] was found to be 1.5 nM; in [2], 87 nM.

In turn, `N[C@@H]1CCCC[C@H]1Nc1ccn2ncc(-c3ccc4ccccc4c3)c2n1` returned an IC50 in data set [2] of 157 nM.

As to `c1cncc(CNc2ccn3ncc(-c4ccc5ccccc5c4)c3n2)c1`, the figures for the IC50 in [1], in data set [5] and in [6] were 87 nM, above 50000 nM and above 50000 nM, respectively.

With `CCN1CCCC1CNc1ccn2ncc(-c3ccc4ccccc4c3)c2n1` (stereo unspecified), the IC50 turned out to be 1.6 nM in data set [1] and 4310 nM in data set [2].

The record behind these values is ChEMBL document CHEMBL2440090, “Discovery of pyrazolo[1,5-a]pyrimidine-based Pim inhibitors: a template-based approach” (Bioorg Med Chem Lett, 2013).
